Test results: patent US9476099B2 (TRUSTEES OF DARTMOUTH COLLEGE, priority 2012, dated 2016)

System: gene promoters in NT2/D1-R1 control and DNMT3B knockdown cells
Experiment: Genome-wide promoter methylation analysis, HumanMethylation27 BeadChip (Table 15)
Assay type: cell-based, human
Conditions: sh-ctrl + 5aza
Method: DNA methylation analysis was performed in samples in triplicate using the […] […] assay with the HumanMethylation27 BeadChip ([…]) and the BeadChip was scanned on the BeadArray Reader ([…]), according to the manufacturer's instructions. Raw data was normalized and analyzed with Genome Studio software ([…]). The HumanMethylation27 BeadChip assays 27,578 CpGs covering more than 14,000 genes, mostly from promoter regions. […] Hierarchical clustering was performed as stated above. HumanMethylation27 BeadChip data and gene expression microarray data were submitted to NCBI GEO.

`Nc1ncn([C@H]2C[C@H](O)[C@@H](CO)O2)c(=O)n1` [5aza] was tested, and the “ABCC1 cg20158248 promoter methylation Mean” value was 0.480, the “ACP1 cg27226618 promoter methylation Mean” value was 0.786 and the “ADCY4 cg16761581 promoter methylation Mean” value was 0.609. The “ADRA2A cg26926521 promoter methylation Mean” value was 0.939, the “ALDH1A3 cg19224278 promoter methylation Mean” value was 0.443 and the “ALKBH4 cg07404418 promoter methylation Mean” value was 0.458. For the same molecule, the “ALX4 cg04549333 promoter methylation Mean” value was 1.136, the “ALX4 cg04970352 promoter methylation Mean” value was 0.964 and the “ALX4 cg19358442 promoter methylation Mean” value was 1.126. The “ANKRD13C cg19342782 promoter methylation Mean” value was 0.544, the “ANKRD45 cg15883716 promoter methylation Mean” value was 1.017 and the “APC cg16970232 promoter methylation Mean” value was 0.424. For the same molecule, the “BLOC1S2 cg26610808 promoter methylation Mean” value was 0.575, the “BTBD5 cg00660989 promoter methylation Mean” value was 0.347 and the “BTNL8 cg24024214 promoter methylation Mean” value was 1.068. For the same molecule, the “C1QL1 cg13818573 promoter methylation Mean” value was 0.460, the “C1orf188 cg15731815 promoter methylation Mean” value was 0.541 and the “C10orf107 cg16063112 promoter methylation Mean” value was 0.354. The “C14orf173 cg24404909 promoter methylation Mean” value was 0.379, the “C16orf60 cg17858663 promoter methylation Mean” value was 0.245 and the “C19orf4 cg07379574 promoter methylation Mean” value was 1.078. The “C19orf22 cg18022193 promoter methylation Mean” value was 0.288, the “CAMK1G cg27337148 promoter methylation Mean” value was 1.021 and the “CD58 cg21039631 promoter methylation Mean” value was 0.251. The “CDKN2B cg04675937 promoter methylation Mean” value was 0.256, the “CDKN2B cg08390209 promoter methylation Mean” value was 0.280 and the “CDX1 cg15452204 promoter methylation Mean” value was 0.595. For the same molecule, the “CEACAM4 cg10237469 promoter methylation Mean” value was 0.718, the “CEACAM7 cg19623751 promoter methylation Mean” value was 0.886 and the “CGI-38 cg13067215 promoter methylation Mean” value was 0.513. For the same molecule, the “CHD5 cg00282347 promoter methylation Mean” value was 1.005, the “CHMP2A cg14042128 promoter methylation Mean” value was 0.541 and the “COL11A1 cg12884406 promoter methylation Mean” value was 0.415. The “COPS7B cg05422352 promoter methylation Mean” value was 0.579, the “CRSP7 cg24459023 promoter methylation Mean” value was 0.301 and the “CSPG3 cg06952310 promoter methylation Mean” value was 0.480. The “CSTF2T cg06712026 promoter methylation Mean” value was 0.431, the “CTAGE1 cg02847216 promoter methylation Mean” value was 0.955 and the “CUL3 cg09509863 promoter methylation Mean” value was 0.411. The “CYP4F12 cg25813714 promoter methylation Mean” value was 0.959, the “DCTD cg14892066 promoter methylation Mean” value was 0.243 and the “DDEF2 cg22190705 promoter methylation Mean” value was 0.329. For the same molecule, the “DEFB118 cg03014957 promoter methylation Mean” value was 0.690, the “DNASE2 cg07955356 promoter methylation Mean” value was 0.275 and the “DPH1 cg11516377 promoter methylation Mean” value was 0.465. For the same molecule, the “DYRK1B cg18851831 promoter methylation Mean” value was 1.262, the “EIF2B3 cg16604218 promoter methylation Mean” value was 0.543 and the “ELSPBP1 cg19404979 promoter methylation Mean” value was 0.655. For the same molecule, the “ENOSF1 cg16112050 promoter methylation Mean” value was 1.028, the “EPN3 cg24006361 promoter methylation Mean” value was 1.019 and the “EREG cg19308222 promoter methylation Mean” value was 0.356. For the same molecule, the “FAM111B cg13864937 promoter methylation Mean” value was 0.508, the “FLJ10726 cg14145762 promoter methylation Mean” value was 0.436 and the “FLJ11200 cg09001953 promoter methylation Mean” value was 0.482. For the same molecule, the “FLJ23514 cg16404106 promoter methylation Mean” value was 0.628, the “FLRT3 cg23127998 promoter methylation Mean” value was 0.397 and the “FLT3LG cg01667384 promoter methylation Mean” value was 0.249. For the same molecule, the “FXYD7 cg22392666 promoter methylation Mean” value was 1.028, the “G10 cg02798801 promoter methylation Mean” value was 0.608 and the “GABRB2 cg16509658 promoter methylation Mean” value was 0.219. For the same molecule, the “GALNT4 cg16606638 promoter methylation Mean” value was 0.265, the “GAS8 cg03634997 promoter methylation Mean” value was 1.082 and the “GBX2 cg23095584 promoter methylation Mean” value was 0.468. For the same molecule, the “GNAS cg27661264 promoter methylation Mean” value was 0.565, the “GRB10 cg26163537 promoter methylation Mean” value was 0.312 and the “GUP1 cg24938727 promoter methylation Mean” value was 0.640. The “HACE1 cg23047681 promoter methylation Mean” value was 0.204, the “HGF cg06745740 promoter methylation Mean” value was 0.594 and the “HNRNPG-T cg22062068 promoter methylation Mean” value was 0.977. For the same molecule, the “HOXB4 cg25145670 promoter methylation Mean” value was 0.488, the “HRASLS cg08376864 promoter methylation Mean” value was 0.853 and the “HYPK cg00480356 promoter methylation Mean” value was 0.818. For the same molecule, the “ICAM1 cg08607082 promoter methylation Mean” value was 0.244, the “IFI16 cg07463059 promoter methylation Mean” value was 0.582 and the “IFI44 cg07107453 promoter methylation Mean” value was 0.513. For the same molecule, the “IFNA2 cg13235447 promoter methylation Mean” value was 0.697, the “IGF2AS cg20792294 promoter methylation Mean” value was 0.323 and the “IGFBP5 cg19008649 promoter methylation Mean” value was 0.370. The “IGSF9 cg19111262 promoter methylation Mean” value was 0.826, the “IHH cg17178336 promoter methylation Mean” value was 0.709 and the “IL2RG cg01361446 promoter methylation Mean” value was 1.103. The “IL18 cg11304234 promoter methylation Mean” value was 0.646, the “INPP5B cg10784030 promoter methylation Mean” value was 0.366 and the “ITGB3BP cg18464559 promoter methylation Mean” value was 0.168. The “KA21 cg23776012 promoter methylation Mean” value was 0.641, the “KCNA3 cg03483626 promoter methylation Mean” value was 0.326 and the “KCNAB3 cg14918082 promoter methylation Mean” value was 0.852. For the same molecule, the “KCNB2 cg11754206 promoter methylation Mean” value was 0.551, the “KCNK10 cg17671157 promoter methylation Mean” value was 1.059 and the “KLK7 cg19953406 promoter methylation Mean” value was 0.983. The “LAMB1 cg10064162 promoter methylation Mean” value was 0.426, the “LDHD cg24429836 promoter methylation Mean” value was 0.760 and the “LIG4 cg08216792 promoter methylation Mean” value was 0.356. The “LYNX1 cg24046110 promoter methylation Mean” value was 0.430, the “MC3R cg19226099 promoter methylation Mean” value was 1.057 and the “MGC26856 cg07684809 promoter methylation Mean” value was 0.489. The “MLNR cg02620013 promoter methylation Mean” value was 0.755, the “MPHOSPH6 cg16119274 promoter methylation Mean” value was 0.444 and the “MSX1 cg03199651 promoter methylation Mean” value was 0.288. For the same molecule, the “MYOD1 cg24322623 promoter methylation Mean” value was 0.931, the “NCKIPSD cg04244987 promoter methylation Mean” value was 0.392 and the “NDP cg11614809 promoter methylation Mean” value was 0.756. For the same molecule, the “NEFH cg16042149 promoter methylation Mean” value was 1.041, the “NEIL2 cg14329976 promoter methylation Mean” value was 0.360 and the “NME5 cg13707560 promoter methylation Mean” value was 1.225. For the same molecule, the “NME5 cg25507001 promoter methylation Mean” value was 0.889, the “NOC3L cg07270175 promoter methylation Mean” value was 0.614 and the “NOX4 cg17063929 promoter methylation Mean” value was 0.483. For the same molecule, the “NPAS1 cg09628601 promoter methylation Mean” value was 0.553, the “NRXN1 cg10917619 promoter methylation Mean” value was 0.867 and the “OR1N1 cg14598387 promoter methylation Mean” value was 0.606. The “OR10J1 cg15700197 promoter methylation Mean” value was 0.679, the “PACS1 cg01663295 promoter methylation Mean” value was 0.625 and the “PCDHB13 cg14592099 promoter methylation Mean” value was 0.747. The “PCDHB13 cg24435562 promoter methylation Mean” value was 0.441, the “PCDHGA12 cg11647681 promoter methylation Mean” value was 0.936 and the “PCGF5 cg17001035 promoter methylation Mean” value was 0.893. For the same molecule, the “PEPD cg06546607 promoter methylation Mean” value was 0.266, the “PEX5L cg02430692 promoter methylation Mean” value was 0.511 and the “PI3 cg02442161 promoter methylation Mean” value was 0.857. The “PIGL cg05310071 promoter methylation Mean” value was 0.351, the “POU3F3 cg20291049 promoter methylation Mean” value was 0.387 and the “POU4F2 cg24199834 promoter methylation Mean” value was 0.287. The “PTCH2 cg15329642 promoter methylation Mean” value was 0.789, the “PTPN5 cg17233601 promoter methylation Mean” value was 0.801 and the “RASGEF1A cg07871503 promoter methylation Mean” value was 0.945. The “RBPSUHL cg21835643 promoter methylation Mean” value was 1.018, the “REM1 cg12153542 promoter methylation Mean” value was 0.664 and the “REM1 cg26299767 promoter methylation Mean” value was 0.727. For the same molecule, the “RLN3R1 cg12238343 promoter methylation Mean” value was 0.732, the “RPL39L cg07441272 promoter methylation Mean” value was 0.691 and the “RRM2B cg07125123 promoter methylation Mean” value was 0.370. The “RYR1 cg05471297 promoter methylation Mean” value was 0.480, the “S100A12 cg02813121 promoter methylation Mean” value was 0.941 and the “SCUBE2 cg01081263 promoter methylation Mean” value was 0.693. For the same molecule, the “SCUBE2 cg19237879 promoter methylation Mean” value was 0.670, the “SEMA3E cg08274234 promoter methylation Mean” value was 0.306 and the “SEMA6C cg01958916 promoter methylation Mean” value was 0.267. The “SEPN1 cg21187265 promoter methylation Mean” value was 0.387.
